From patent publication US20250145606A1 (Arcus Biosciences, Inc., priority 2023, published 2025)
Like-named read-outs stand apart in the source and are kept apart here.

Tests used:
c-Kit = c-Kit (Homo sapiens (Human), UniProt P10721); assay: Inhibition of c-Kit kinase activity (HTRF KinEASE-TK); type: biochemical; conditions: biochemical, HTRF KinEASE-TK
Procedure, shortened: (§1)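 Recombinant kinases (2 nM CSF1R and c-Kit, 10 nM PDGFRα/β, 2× working) preincubated 1 h with compound in 50 mM HEPES pH 7.4, 5 mM MgCl2 (c-Kit) or 10 mM (others), 2 mM MnCl2; 2× ATP: c-Kit 16 μM, PDGFRα 1 μM, PDGFRβ 40 μM, CSF1R 20 μM. 120 min reaction at rt; TR-FRET 665/620 nm; IC50 by 4-parameter fit.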

PDGFRα = PDGFRα (Homo sapiens (Human), UniProt P16234); assay: Inhibition of PDGFRα kinase activity (HTRF KinEASE-TK); conditions: biochemical, HTRF KinEASE-TK
Procedure, shortened: as §1

PDGFRβ = PDGFRβ (Homo sapiens (Human), UniProt P09619); assay: Inhibition of PDGFRβ kinase activity (HTRF KinEASE-TK); conditions: biochemical, HTRF KinEASE-TK
Procedure, shortened: as §1

CSF1R = CSF1R (Homo sapiens (Human), UniProt P07333); assay: Inhibition of CSF1R kinase activity (HTRF KinEASE-TK); conditions: biochemical, HTRF KinEASE-TK
Procedure, shortened: as §1

[1] = test system: Phospho-KIT (Y703) in M07e cells; assay: Phospho-KIT (Y703) cellular assay in M07e cells; type: cell-based; conditions: M-07e, M07e cells
Procedure, shortened: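 Serum-starved M07e cells preincubated 50 min at 37° C with 11-point half-log compound titration, then stimulated 10 min with SCF at 90.9 ng/mL final. Fixed, permeabilized cells stained for phospho-KIT Y703 and read by flow cytometry (live-gated geometric mean); IC50 by 4-parameter fit normalized to DMSO and positive control.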

[2] = Phospho-KIT (Y703), read-out: M07e Cell IC50
[3] = read-out: Phospho-KIT (Y703) cellular IC50

CSF1R, sequence (P07333 20-972): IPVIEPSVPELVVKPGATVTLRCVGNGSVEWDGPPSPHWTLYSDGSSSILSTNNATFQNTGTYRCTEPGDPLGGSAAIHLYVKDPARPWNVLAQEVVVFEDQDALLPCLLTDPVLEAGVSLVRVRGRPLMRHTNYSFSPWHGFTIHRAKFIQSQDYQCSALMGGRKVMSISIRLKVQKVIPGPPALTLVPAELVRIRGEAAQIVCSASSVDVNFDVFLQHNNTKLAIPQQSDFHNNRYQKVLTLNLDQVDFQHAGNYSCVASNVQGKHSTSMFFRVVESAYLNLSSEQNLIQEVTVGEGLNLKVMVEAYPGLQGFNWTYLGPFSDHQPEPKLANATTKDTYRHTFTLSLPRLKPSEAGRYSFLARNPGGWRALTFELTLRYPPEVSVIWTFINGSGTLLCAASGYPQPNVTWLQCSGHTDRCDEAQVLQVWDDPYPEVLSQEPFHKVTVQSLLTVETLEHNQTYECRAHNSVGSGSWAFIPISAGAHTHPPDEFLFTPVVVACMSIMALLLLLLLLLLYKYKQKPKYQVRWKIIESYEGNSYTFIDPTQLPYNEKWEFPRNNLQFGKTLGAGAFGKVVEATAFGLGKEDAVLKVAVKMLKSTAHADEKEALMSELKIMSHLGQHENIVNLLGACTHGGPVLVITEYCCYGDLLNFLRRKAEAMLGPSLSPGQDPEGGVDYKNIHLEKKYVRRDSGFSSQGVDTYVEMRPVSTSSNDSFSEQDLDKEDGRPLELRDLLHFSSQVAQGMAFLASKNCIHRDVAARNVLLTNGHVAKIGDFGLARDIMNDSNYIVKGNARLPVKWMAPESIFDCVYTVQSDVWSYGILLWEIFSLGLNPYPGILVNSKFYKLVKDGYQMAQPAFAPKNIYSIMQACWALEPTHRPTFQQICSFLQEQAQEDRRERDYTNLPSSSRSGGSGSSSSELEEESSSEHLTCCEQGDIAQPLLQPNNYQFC
c-Kit, sequence (P10721 26-976): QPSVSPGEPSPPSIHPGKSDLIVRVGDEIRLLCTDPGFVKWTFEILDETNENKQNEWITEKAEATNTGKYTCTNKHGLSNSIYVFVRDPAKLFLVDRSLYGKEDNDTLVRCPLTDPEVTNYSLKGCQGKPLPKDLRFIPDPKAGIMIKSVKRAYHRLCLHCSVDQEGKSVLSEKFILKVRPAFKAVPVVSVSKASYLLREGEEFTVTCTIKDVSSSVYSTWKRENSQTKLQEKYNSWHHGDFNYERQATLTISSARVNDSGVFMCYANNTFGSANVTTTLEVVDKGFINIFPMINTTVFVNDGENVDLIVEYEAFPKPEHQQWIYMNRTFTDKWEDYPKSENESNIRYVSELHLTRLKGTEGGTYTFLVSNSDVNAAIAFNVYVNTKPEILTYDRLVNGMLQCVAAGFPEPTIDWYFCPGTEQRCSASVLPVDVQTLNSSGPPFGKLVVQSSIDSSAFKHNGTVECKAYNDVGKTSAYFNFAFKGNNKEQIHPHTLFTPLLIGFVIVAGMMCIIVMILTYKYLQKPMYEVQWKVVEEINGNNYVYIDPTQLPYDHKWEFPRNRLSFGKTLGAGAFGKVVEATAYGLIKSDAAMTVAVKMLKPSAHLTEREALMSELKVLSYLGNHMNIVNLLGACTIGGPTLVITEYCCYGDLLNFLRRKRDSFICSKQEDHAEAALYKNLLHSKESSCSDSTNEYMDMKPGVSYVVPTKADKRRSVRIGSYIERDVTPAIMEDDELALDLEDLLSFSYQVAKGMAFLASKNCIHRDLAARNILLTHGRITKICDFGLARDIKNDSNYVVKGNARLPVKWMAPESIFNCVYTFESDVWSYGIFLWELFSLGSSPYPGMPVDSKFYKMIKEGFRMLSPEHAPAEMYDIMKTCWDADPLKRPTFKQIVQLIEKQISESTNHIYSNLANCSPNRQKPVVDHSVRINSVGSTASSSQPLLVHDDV
PDGFRβ, sequence (P09619 33-1106): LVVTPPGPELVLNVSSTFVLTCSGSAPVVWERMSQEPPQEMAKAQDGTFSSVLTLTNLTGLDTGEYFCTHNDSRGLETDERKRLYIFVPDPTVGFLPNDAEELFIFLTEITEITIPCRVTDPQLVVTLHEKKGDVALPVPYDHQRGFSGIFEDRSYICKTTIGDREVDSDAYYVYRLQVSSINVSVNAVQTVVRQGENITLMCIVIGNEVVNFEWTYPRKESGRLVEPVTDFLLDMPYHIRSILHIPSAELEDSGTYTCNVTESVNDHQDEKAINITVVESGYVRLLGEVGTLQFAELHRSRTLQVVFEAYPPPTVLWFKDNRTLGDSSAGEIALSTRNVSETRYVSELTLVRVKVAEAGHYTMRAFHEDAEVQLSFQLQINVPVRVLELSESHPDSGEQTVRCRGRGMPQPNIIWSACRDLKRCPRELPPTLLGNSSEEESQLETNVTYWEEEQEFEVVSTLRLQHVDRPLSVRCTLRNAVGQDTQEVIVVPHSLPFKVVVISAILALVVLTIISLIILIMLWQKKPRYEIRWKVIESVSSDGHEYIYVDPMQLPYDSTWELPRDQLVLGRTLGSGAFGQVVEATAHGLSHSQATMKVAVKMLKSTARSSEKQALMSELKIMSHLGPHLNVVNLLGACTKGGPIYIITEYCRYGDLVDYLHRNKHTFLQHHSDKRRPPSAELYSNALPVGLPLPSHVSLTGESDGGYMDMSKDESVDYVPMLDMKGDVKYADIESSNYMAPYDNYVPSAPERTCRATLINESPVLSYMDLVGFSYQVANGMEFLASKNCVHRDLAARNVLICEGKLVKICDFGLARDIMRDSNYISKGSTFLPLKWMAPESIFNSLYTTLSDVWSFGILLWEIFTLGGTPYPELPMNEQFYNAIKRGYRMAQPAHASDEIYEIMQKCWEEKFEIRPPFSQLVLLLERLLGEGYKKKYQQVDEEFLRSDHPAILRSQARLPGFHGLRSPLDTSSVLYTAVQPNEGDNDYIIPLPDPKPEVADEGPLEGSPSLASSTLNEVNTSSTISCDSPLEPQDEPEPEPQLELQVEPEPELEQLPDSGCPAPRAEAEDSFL
PDGFRα, sequence (P16234 24-1089): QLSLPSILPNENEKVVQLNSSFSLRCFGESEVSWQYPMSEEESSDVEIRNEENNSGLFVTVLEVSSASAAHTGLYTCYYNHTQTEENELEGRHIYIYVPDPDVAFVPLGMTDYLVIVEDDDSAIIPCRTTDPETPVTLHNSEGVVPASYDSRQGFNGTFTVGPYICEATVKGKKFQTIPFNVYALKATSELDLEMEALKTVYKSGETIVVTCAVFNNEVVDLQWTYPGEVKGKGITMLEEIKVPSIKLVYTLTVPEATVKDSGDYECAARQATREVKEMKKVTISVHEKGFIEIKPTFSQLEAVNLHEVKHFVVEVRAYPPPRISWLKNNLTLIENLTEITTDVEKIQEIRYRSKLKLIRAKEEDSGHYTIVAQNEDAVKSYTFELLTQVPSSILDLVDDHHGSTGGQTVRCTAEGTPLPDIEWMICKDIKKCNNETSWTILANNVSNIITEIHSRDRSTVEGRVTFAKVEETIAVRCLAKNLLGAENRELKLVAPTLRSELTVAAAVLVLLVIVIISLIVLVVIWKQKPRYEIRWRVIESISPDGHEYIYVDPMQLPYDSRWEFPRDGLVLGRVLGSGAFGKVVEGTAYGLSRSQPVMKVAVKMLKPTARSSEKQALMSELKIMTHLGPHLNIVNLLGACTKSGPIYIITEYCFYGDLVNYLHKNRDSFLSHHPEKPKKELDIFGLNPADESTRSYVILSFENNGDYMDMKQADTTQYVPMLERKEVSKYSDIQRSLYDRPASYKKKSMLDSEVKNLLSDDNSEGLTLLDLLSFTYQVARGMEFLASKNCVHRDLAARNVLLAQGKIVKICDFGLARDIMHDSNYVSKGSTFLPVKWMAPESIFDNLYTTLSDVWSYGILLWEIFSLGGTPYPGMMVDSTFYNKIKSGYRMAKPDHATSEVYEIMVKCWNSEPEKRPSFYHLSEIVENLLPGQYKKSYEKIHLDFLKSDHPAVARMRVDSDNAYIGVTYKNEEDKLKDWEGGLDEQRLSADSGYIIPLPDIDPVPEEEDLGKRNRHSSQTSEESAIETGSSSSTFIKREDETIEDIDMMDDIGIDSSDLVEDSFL

Compound	IC50 (c-Kit) [nM]	IC50 (PDGFRα) [nM]	IC50 (PDGFRβ) [nM]	IC50 (CSF1R) [nM]	IC50 [1, 2] [nM]	IC50 [1, 3] [nM]
Cc1ncc(C(=O)Nc2cc(C(=O)Nc3cnc(N4CC[C@H](F)C4)cn3)c(F)cc2C)s1 [Example 93, N-[4-fluoro-5-[[5-[(3S)-3-fluoropyrrolidin-1-yl]pyrazin-2-yl]carbamoyl]-2-methylphenyl]-2-methyl-1,3-thiazole-5-carboxamide]	< 100	> 1000	> 1000	> 1000	< 100	–
Cc1ncc(C(=O)Nc2cc(C(=O)NCc3ccc(OC(F)(F)F)cc3F)c(F)cc2C)s1 [Example 270]	100 to 1000	> 1000	> 1000	> 1000	–	100 to 1000
Cc1cc(F)c(C(=O)Nc2ccc(O[C@@H]3CCOC3)cn2)cc1NC(=O)c1cnc(N)s1 [Example 198, 2-Amino-N-[4-fluoro-2-methyl-5-[[5-[(3R)-oxolan-3-yl]oxypyridin-2-yl]carbamoyl]phenyl]-1,3-thiazole-5-carboxamide]	< 100	> 1000	100 to 1000	> 1000	< 100	–
Cc1ncc(C(=O)Nc2cc(C(=O)Nc3cnc(N4CC[C@@H](O)C4)cn3)c(F)cc2C)s1 [Example 72, (R)—N-(4-fluoro-5-((5-(3-hydroxypyrrolidin-1-yl)pyrazin-2-yl)carbamoyl)-2-methylphenyl)-2-methylthiazole-5-carboxamide]	< 100	> 1000	> 1000	> 1000	< 100	–
Cc1ncc(C(=O)Nc2cc(C(=O)Nc3ccc(OC4CC4)cn3)c(F)cc2Cl)s1 [Example 49, N-[2-chloro-5-[(5-cyclopropyloxypyridin-2-yl)carbamoyl]-4-fluorophenyl]-2-methyl-1,3-thiazole-5-carboxamide]	< 100	> 1000	> 1000	> 1000	< 100	–
Cc1ncc(C(=O)Nc2cc(C(=O)Nc3cnc(OC4CC(F)(F)C4)cn3)c(F)cc2C)s1 [Example 32, N-[5-[[5-(3,3-difluorocyclobutyl)oxypyrazin-2-yl]carbamoyl]-4-fluoro-2-methylphenyl]-2-methyl-1,3-thiazole-5-carboxamide]	< 100	> 1000	> 1000	> 1000	< 100	–
Cc1ncc(C(=O)Nc2cc(C(=O)Nc3cnc(OCC4CC4)cn3)c(F)cc2C)s1 [Example 88, N-{5-[N-5-(cyclopropylmethoxy)-2-pyrazinylcarbamoyl]-4-fluoro-2-tolyl}-2-methyl-1,3-thiazole-5-carboxamide]	100 to 1000	> 1000	> 1000	> 1000	100 to 1000	–

Continued, values first:

IC50 (c-Kit) [nM]	IC50 (PDGFRα) [nM]	IC50 (PDGFRβ) [nM]	IC50 (CSF1R) [nM]	IC50 [1, 2] [nM]	IC50 [1, 3] [nM]	Compound
100 to 1000	> 1000	> 1000	> 1000	100 to 1000	–	Cc1ncc(C(=O)Nc2cc(C(=O)Nc3ccnc(CC4CC4)n3)c(F)cc2C)s1 [Example 100, N-[5-[[2-(cyclopropylmethyl)pyrimidin-4-yl]carbamoyl]-4-fluoro-2-methylphenyl]-2-methyl-1,3-thiazole-5-carboxamide]
< 100	< 100	100 to 1000	100 to 1000	< 100	–	Cc1ncc(C(=O)Nc2cc(C(=O)N[C@@H]3C[C@@H]3c3ccccc3Cl)c(F)cc2C)s1 [Example 101, N-[5-[[(1R,2R)-2-(2-chlorophenyl)cyclopropyl]carbamoyl]-4-fluoro-2-methylphenyl]-2-methyl-1,3-thiazole-5-carboxamide]
< 100	> 1000	> 1000	> 1000	–	< 100	Cc1ncc(C(=O)Nc2cc(C(=O)NCc3ccc(F)cc3F)c(F)cc2C)s1 [Example 263, N-[5-[(2,4-difluorophenyl)methylcarbamoyl]-4-fluoro-2-methylphenyl]-2-methyl-1,3-thiazole-5-carboxamide]
